Measurements reported in paper PMC13125297, “Portable geosmin detection system based on sensor cells expressing insect odorant receptors” (Scientific Reports, 2026).

Columns and labels:
Or13a = target: T1, Or13a (Drosophila melanogaster, UniProt Q9VXL0); experiment: GCaMP6s calcium imaging in Sf21 cells co-expressing Or13a and Orco, dose-response; type: cell-based
T1 construct: wild-type Or13a stably expressed in Sf21 cells (clone Or13a-WT-C4); with Orco
T1 sequence (Q9VXL0 1-418): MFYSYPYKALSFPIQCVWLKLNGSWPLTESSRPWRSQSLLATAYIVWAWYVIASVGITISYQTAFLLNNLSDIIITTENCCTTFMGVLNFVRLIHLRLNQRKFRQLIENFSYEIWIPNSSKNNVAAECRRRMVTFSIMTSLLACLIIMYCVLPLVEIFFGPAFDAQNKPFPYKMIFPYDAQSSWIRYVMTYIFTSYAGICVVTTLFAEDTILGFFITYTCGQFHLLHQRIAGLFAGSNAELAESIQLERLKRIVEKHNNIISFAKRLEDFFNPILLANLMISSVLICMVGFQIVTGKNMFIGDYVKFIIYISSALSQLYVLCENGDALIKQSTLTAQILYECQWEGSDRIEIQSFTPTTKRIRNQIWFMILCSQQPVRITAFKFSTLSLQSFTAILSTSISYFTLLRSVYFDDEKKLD
T1 sequence (Q9VNB5 1-486 partner): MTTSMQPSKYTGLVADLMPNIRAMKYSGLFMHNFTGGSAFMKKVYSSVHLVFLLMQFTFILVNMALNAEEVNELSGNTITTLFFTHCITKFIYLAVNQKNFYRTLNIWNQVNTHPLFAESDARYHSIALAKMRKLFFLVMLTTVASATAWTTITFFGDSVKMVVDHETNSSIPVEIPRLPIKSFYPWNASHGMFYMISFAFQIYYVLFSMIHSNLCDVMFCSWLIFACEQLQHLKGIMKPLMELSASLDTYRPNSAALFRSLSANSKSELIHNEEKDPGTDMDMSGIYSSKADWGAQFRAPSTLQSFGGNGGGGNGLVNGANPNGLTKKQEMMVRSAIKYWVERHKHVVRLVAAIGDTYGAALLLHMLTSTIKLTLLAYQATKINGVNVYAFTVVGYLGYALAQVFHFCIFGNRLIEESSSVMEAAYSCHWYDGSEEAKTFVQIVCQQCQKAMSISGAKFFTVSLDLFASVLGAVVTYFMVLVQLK

Or56a = target: T2, Or56a (Drosophila melanogaster, UniProt Q9V8Y7); experiment: GCaMP6s calcium imaging in Sf21 cells co-expressing Or56a and Orco, dose-response; type: cell-based
T2 construct: with Orco
T2 sequence (Q9V8Y7 whole entry, one chain of several): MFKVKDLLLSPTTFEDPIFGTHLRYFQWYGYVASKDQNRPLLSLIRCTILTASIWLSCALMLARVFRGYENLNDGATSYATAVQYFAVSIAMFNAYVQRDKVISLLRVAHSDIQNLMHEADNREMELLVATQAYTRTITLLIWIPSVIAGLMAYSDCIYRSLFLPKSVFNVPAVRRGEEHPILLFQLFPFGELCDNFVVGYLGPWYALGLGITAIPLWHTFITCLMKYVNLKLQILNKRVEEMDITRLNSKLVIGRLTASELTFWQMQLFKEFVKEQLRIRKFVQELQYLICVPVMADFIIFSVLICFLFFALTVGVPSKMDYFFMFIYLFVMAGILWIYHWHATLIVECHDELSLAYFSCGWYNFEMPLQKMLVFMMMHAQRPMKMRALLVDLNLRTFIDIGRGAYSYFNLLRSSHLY

| EC50 (Or13a) [nM] | EC50 (Or56a) [nM] | SMILES |
| --- | --- | --- |
| 3500 | – | C=CC(O)CCCCC (centres unmarked) [1-octen-3-ol] |
| – | 630 | CC1CCCC2(C)CCCCC12O (stereo not drawn) [geosmin, trans-1,10-dimethyl-trans-9-decalol] |
